Measurements published in patent US8937072B2, “Substituted cyanoaniline compounds, preparation and use thereof” (Sinochem Corporation, priority 2011, dated 2015).
Like-named read-outs stand apart in the source and are kept apart here.

Columns and labels:
rice blast = assay: microbe, parasite or virus in culture; format: cell-based; conditions: for inhibition at 0.03 µg/mL / inhibition at 0.1 µg/mL / inhibition at 0.3 µg/mL / inhibition at 25 µg/mL: Pyricularia oryzae; for inhibition at 0.03 µg/mL: read-out: the inhibition rate against rice blast (%) 0.03 mg/L; for inhibition at 0.1 µg/mL: read-out: the inhibition rate against rice blast (%) 0.1 mg/L; for inhibition at 0.3 µg/mL: read-out: the inhibition rate against rice blast (%) 0.3 mg/L; for the inhibition rate against rice blast (%) 0.03 mg/L: Table 21, 0.03 mg/L; for the inhibition rate against rice blast (%) 0.1 mg/L: Table 21, 0.1 mg/L; for the inhibition rate against rice blast (%) 0.3 mg/L: Table 21, 0.3 mg/L; for inhibition at 25 µg/mL: read-out: inhibition rate against rice blast
cucumber gray mold = assay: Activity in vitro (96-well, High Through Put): inhibition rate against cucumber gray mold; format: cell-based; conditions: for inhibition at 0.9 µg/mL / inhibition at 2.8 µg/mL / inhibition at 8.3 µg/mL: read-out: the inhibition rate against cucumber gray mold (%); for inhibition rate against cucumber gray mold / inhibition at 25 µg/mL: in vitro; for inhibition at 25 µg/mL: dose 25 mg/L
Summary of the method: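 Scored visually at 24 hours relative to control, the readout is pathogen germination or growth. Test solutions used acetone, methanol or DMF as solvent and were mixed with pathogen suspension in a sterile high-throughput format at constant temperature.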

cucumber downy mildew = assay: Protectant activity in vivo (whole plant) against cucumber downy mildew; conditions: for pest or weed control at 25 µg/mL / pest or weed control at 50 µg/mL / pest or weed control at 100 µg/mL: read-out: the protectant activity (%) against cucumber downy mildew
Summary of the method: (§1)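 Whole plants sprayed with test solution, water plus 0.1% Tween-80 and no more than 5% solvent, then inoculated with the pathogen after 24 h. Plants held in humidity chamber or directly in greenhouse depending on fungus. Disease control scored by eye at about 7 days.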

corn rust = assay: Protectant activity in vivo (whole plant) against corn rust; conditions: for pest or weed control at 400 µg/mL / pest or weed control at 6.25 µg/mL / pest or weed control at 25 µg/mL / pest or weed control at 100 µg/mL: Zea mays, 168 h
Summary of the method: as §1

[1] = Cucumis sativus, 168 h, 25 mg/L
[2] = Cucumis sativus, 168 h, 50 mg/L
[3] = Cucumis sativus, 168 h, 100 mg/L
[4] = 400 mg/L, read-out: the protectant activity (%) against corn rust
[5] = dose 400 mg/L, read-out: protectant activity against corn rust in vivo

| Structure (SMILES) | inhibition at 0.03 µg/mL (rice blast) [%] | inhibition at 0.1 µg/mL (rice blast) [%] | inhibition at 0.3 µg/mL (rice blast) [%] | inhibition at 0.3 µg/mL (cucumber gray mold; 0.3 mg/L) [%] | inhibition at 0.9 µg/mL (cucumber gray mold; 0.9 mg/L) [%] | the inhibition rate against rice blast (%) 0.03 mg/L (rice blast) [%] | the inhibition rate against rice blast (%) 0.1 mg/L (rice blast) [%] | the inhibition rate against rice blast (%) 0.3 mg/L (rice blast) [%] | the inhibition rate against cucumber gray mold (%) (cucumber gray mold; 0.9 mg/L) | the inhibition rate against cucumber gray mold (%) (cucumber gray mold; 2.8 mg/L) | the inhibition rate against cucumber gray mold (%) (cucumber gray mold; 8.3 mg/L) | protectant activity against cucumber downy mildew in vivo (cucumber downy mildew; dose 50 mg/L) [%] | protectant activity against cucumber downy mildew in vivo (cucumber downy mildew; dose 100 mg/L) [%] | protectant activity against cucumber downy mildew in vivo (cucumber downy mildew; dose 400 mg/L) [%] | the protectant activity (%) against corn rust (corn rust; 6.25 mg/L) [%] | the protectant activity (%) against corn rust (corn rust; 25 mg/L) [%] | the protectant activity (%) against corn rust (corn rust; 100 mg/L) [%] | the protectant activity (%) against corn rust (corn rust; 400 mg/L) [%] | protectant activity against corn rust in vivo (corn rust; dose 400 mg/L) [%] | the inhibition rate against cucumber gray mold (%) (cucumber gray mold; 0.3 mg/L) | other results |
| --- | --- | --- | --- | --- | --- | --- | --- | --- | --- | --- | --- | --- | --- | --- | --- | --- | --- | --- | --- | --- | --- |
| N#Cc1c(Cl)c(Cl)c(Cl)c(C#N)c1Cl [chlorothalonil] | 0 | 30 | 100 | 80 | 100 | – | – | – | – | – | – | – | – | – | – | – | – | – | – | – | inhibition at 2.8 µg/mL (cucumber gray mold; 2.8 mg/L): 100%; inhibition at 8.3 µg/mL (cucumber gray mold; 8.3 mg/L): 100%; pest or weed control at 25 µg/mL (cucumber downy mildew; [1]): 30%; pest or weed control at 50 µg/mL (cucumber downy mildew; [2]): 80%; pest or weed control at 100 µg/mL (cucumber downy mildew; [3]): 100%; pest or weed control at 400 µg/mL (corn rust; [4]): 50% |
| COc1c(Cl)c(Nc2c(Cl)cc([N+](=O)[O-])cc2Cl)c(C#N)c(Cl)c1C#N [Compound B-74] | – | – | – | – | – | 0 | 50 | 100 | 80 | 100 | 100 | 98 | 100 | 100 | 40 | 70 | 95 | 100 | 100 | – | the protectant activity (%) against cucumber downy mildew (cucumber downy mildew; 25 mg/L): 80%; the protectant activity (%) against cucumber downy mildew (cucumber downy mildew; 50 mg/L): 98%; the protectant activity (%) against cucumber downy mildew (cucumber downy mildew; 100 mg/L): 100% |
| N#Cc1c(Cl)c(Cl)c(Nc2c(F)cc([N+](=O)[O-])cc2Cl)c(C#N)c1Cl [Compound B-53] | – | – | – | – | – | 100 | 100 | 100 | 100 | 100 | 100 | 98 | 100 | 100 | 30 | 50 | 80 | 100 | – | 0 | – |
| N#Cc1c(Cl)c(Cl)c(Nc2c(Cl)cncc2Cl)c(Cl)c1C#N [Compound A-87] | – | – | – | – | – | 100 | 100 | 100 | – | – | – | – | – | – | 50 | 80 | 100 | 100 | – | – | inhibition rate against cucumber gray mold (cucumber gray mold; dose 8.3 mg/L): 80%; protectant activity against corn rust in vivo (corn rust; dose 100 mg/L): 100% |
| N#Cc1c(Cl)c(Cl)c(C#N)c(Nc2c(F)cc([N+](=O)[O-])cc2Cl)c1Cl [Compound C-46] | – | – | – | – | – | 100 | 100 | 100 | 100 | 100 | 100 | – | – | – | – | – | – | – | 80 | 100 | – |
| N#Cc1c(Cl)c(Cl)c(Nc2c(Cl)cc([N+](=O)[O-])cc2Cl)c(C#N)c1Cl [Compound B-54] | – | – | – | – | – | 0 | 0 | 100 | 100 | 100 | 100 | 100 | 100 | 100 | 65 | 80 | 90 | 100 | 100 | 100 | inhibition rate against rice blast (rice blast; in vitro, dose 0.3 mg/L): 80%; inhibition rate against cucumber gray mold (cucumber gray mold; dose 0.3 mg/L): 80%; the protectant activity (%) against cucumber downy mildew (cucumber downy mildew; 25 mg/L): 75%; the protectant activity (%) against cucumber downy mildew (cucumber downy mildew; 50 mg/L): 100%; the protectant activity (%) against cucumber downy mildew (cucumber downy mildew; 100 mg/L): 100% |
| CN(C)c1ccc(Nc2c(Cl)c(F)c(C#N)c(F)c2C#N)cc1 [KC25] | 0 | 0 | 0 | 0 | 0 | – | – | – | – | – | – | – | – | – | – | – | – | – | – | – | inhibition at 25 µg/mL (rice blast): 0%; inhibition at 2.8 µg/mL (cucumber gray mold; 2.8 mg/L): 0%; inhibition at 8.3 µg/mL (cucumber gray mold; 8.3 mg/L): 0%; inhibition at 25 µg/mL (cucumber gray mold): 0%; pest or weed control at 12.5 µg/mL (cucumber downy mildew; Cucumis sativus, 168 h, 12.5 mg/L): 0%; pest or weed control at 25 µg/mL (cucumber downy mildew; [1]): 0%; pest or weed control at 50 µg/mL (cucumber downy mildew; [2]): 0%; pest or weed control at 100 µg/mL (cucumber downy mildew; [3]): 0%; pest or weed control at 400 µg/mL (cucumber downy mildew; Cucumis sativus, 168 h, dose 400 mg/L): 0%; pest or weed control at 6.25 µg/mL (corn rust; 6.25 mg/L): 0%; pest or weed control at 25 µg/mL (corn rust; 25 mg/L): 0%; pest or weed control at 100 µg/mL (corn rust; 100 mg/L): 0%; pest or weed control at 400 µg/mL (corn rust; [4]): 0%; pest or weed control at 400 µg/mL (corn rust; [5]): 0% |
| N#Cc1c(Cl)c(Cl)c(Nc2c(F)cc([N+](=O)[O-])cc2F)c(Cl)c1C#N [Compound A-43] | – | – | – | – | – | 100 | 100 | 100 | 100 | 100 | 100 | – | – | – | – | – | – | – | 100 | 100 | – |
| CCOc1ccccc1Nc1c(F)c(F)c(C#N)c(C#N)c1F [KC26] | 0 | 0 | 0 | 0 | 0 | – | – | – | – | – | – | – | – | – | – | – | – | – | – | – | inhibition at 25 µg/mL (rice blast): 0%; inhibition at 2.8 µg/mL (cucumber gray mold; 2.8 mg/L): 0%; inhibition at 8.3 µg/mL (cucumber gray mold; 8.3 mg/L): 0%; inhibition at 25 µg/mL (cucumber gray mold): 0%; pest or weed control at 6.25 µg/mL (corn rust; 6.25 mg/L): 0%; pest or weed control at 25 µg/mL (corn rust; 25 mg/L): 0%; pest or weed control at 100 µg/mL (corn rust; 100 mg/L): 0%; pest or weed control at 400 µg/mL (corn rust; [4]): 0%; pest or weed control at 400 µg/mL (corn rust; [5]): 0% |
| Cc1cc([N+](=O)[O-])cc(Cl)c1Nc1c(Cl)c(Cl)c(C#N)c(Cl)c1C#N [Compound B-58] | – | – | – | – | – | 0 | 50 | 100 | 100 | 100 | 100 | 100 | 100 | 100 | – | – | – | – | 100 | 80 | inhibition rate against cucumber gray mold (cucumber gray mold; dose 0.3 mg/L): 80%; the protectant activity (%) against cucumber downy mildew (cucumber downy mildew; 12.5 mg/L): 98%; the protectant activity (%) against cucumber downy mildew (cucumber downy mildew; 25 mg/L): 98%; the protectant activity (%) against cucumber downy mildew (cucumber downy mildew; 50 mg/L): 100%; the protectant activity (%) against cucumber downy mildew (cucumber downy mildew; 100 mg/L): 100%; protectant activity against cucumber downy mildew in vivo (cucumber downy mildew; dose 12.5 mg/L): 98% |
